We go through two molecules from patent publication US20220009931A1, “NOVEL UREA 6,7-DIHYDRO-4H-PYRAZOLO[1,5-A]PYRAZINES ACTIVE AGAINST THE HEPATITIS B VIRUS (HBV)” (AICURIS GMBH & CO. KG, priority 2018, published 2022).

This experiment has as its system HBV. The following applies: Hepatitis B virus, HePAD38, 144 h, read-out: Cell Activity.

Take `COC1(CNc2cc3n(n2)CCN(C(=O)Nc2ccc(F)c(Cl)c2)C3)CCC1` [Example 18, N-(3-chloro-4-fluorophenyl)-2-{[(1-methoxycyclobutyl)methyl]amino}-4H,5H,6H,7H-pyrazolo[1,5-a]pyrazine-5-carboxamide]: the EC50 is under 1000 nM.

In the case of `CC(C)OC1(CNc2cc3n(n2)CCN(C(=O)Nc2ccc(F)c(Cl)c2)C3)CCC1` [Example 24, N-(3-chloro-4-fluorophenyl)-2-({[1-(propan-2-yloxy)cyclobutyl]methyl}amino)-4H,5H,6H,7H-pyrazolo[1,5-a]pyrazine-5-carboxamide], the EC50 lay within 1000 to 10000 nM.
